Active and inactive are the calls of the source. For most assays here, no stated cut-off is given here; in the data, actives have a measured Kd and inactives only a lower limit.
Columns and labels:
[1] = molecular target: Eukaryotic translation initiation factor 2-alpha kinase 1 (Homo sapiens, UniProt Q9BQI3)
[2] = molecular target: T1, Serine/threonine-protein kinase TAO3 (Homo sapiens, UniProt Q9H2K8)
T1 sequence (Q9H2K8 whole entry): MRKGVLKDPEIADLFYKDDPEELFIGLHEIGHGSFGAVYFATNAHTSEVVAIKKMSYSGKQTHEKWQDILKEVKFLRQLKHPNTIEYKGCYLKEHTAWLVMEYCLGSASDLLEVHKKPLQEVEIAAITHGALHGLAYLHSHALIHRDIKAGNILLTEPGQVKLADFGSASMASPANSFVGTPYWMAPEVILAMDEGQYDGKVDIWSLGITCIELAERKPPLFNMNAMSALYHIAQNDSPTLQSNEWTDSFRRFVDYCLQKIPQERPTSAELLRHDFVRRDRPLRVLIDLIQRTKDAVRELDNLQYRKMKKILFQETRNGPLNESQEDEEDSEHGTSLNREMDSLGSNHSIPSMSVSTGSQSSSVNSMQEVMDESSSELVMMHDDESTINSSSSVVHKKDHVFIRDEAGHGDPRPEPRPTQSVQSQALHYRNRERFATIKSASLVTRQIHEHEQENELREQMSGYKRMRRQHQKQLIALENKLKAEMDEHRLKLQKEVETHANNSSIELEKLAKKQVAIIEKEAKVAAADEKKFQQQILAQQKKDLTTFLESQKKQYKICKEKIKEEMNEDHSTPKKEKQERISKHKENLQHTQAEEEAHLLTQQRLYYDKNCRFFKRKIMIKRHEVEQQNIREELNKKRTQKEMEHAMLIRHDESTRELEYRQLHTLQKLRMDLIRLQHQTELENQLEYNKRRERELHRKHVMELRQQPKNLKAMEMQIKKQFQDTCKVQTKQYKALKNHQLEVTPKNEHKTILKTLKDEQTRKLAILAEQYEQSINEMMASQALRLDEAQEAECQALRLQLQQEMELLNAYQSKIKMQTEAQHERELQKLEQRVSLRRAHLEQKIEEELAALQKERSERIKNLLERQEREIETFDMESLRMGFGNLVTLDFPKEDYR

[3] = molecular target: cAMP-dependent protein kinase catalytic subunit gamma (Homo sapiens, UniProt P22612)
Chain of cAMP-dependent protein kinase catalytic subunit gamma (P22612 whole entry): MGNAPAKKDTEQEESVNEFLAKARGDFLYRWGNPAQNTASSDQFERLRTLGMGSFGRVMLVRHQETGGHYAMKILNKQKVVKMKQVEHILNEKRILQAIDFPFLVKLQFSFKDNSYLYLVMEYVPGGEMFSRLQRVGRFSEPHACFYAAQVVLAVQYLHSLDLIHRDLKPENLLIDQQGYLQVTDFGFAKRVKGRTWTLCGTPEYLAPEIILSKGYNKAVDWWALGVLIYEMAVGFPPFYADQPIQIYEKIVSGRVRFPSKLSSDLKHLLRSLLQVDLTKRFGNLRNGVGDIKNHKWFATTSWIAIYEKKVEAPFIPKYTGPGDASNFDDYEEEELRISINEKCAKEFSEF

[4] = molecular target: T2, ATP-dependent 6-phosphofructokinase, platelet type (Homo sapiens, UniProt Q01813)
T2 sequence (Q01813 whole entry): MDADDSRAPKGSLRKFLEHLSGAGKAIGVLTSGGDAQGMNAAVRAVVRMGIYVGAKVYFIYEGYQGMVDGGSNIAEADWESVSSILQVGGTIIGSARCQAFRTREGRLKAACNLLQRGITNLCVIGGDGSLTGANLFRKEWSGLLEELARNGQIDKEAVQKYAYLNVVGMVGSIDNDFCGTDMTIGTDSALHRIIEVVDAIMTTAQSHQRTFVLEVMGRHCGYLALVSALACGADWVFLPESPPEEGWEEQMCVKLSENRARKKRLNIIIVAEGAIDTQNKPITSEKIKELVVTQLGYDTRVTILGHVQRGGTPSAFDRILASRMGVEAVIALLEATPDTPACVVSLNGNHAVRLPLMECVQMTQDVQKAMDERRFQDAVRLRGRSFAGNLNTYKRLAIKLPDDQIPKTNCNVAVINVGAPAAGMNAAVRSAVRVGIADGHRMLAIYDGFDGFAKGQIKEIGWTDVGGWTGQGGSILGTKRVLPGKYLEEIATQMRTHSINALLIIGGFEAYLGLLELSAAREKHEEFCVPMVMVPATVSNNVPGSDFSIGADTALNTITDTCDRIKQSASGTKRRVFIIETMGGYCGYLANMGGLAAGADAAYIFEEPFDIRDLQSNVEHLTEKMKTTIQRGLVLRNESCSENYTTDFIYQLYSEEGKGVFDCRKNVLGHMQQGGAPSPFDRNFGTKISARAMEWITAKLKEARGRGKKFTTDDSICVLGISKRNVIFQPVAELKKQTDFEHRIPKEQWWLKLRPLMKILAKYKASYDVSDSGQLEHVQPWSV

[5] = molecular target: T3, Bifunctional phosphoribosylaminoimidazole carboxylase/phosphoribosylaminoimidazole succinocarboxamide synthetase (Homo sapiens, UniProt P22234)
T3 sequence (P22234 whole entry): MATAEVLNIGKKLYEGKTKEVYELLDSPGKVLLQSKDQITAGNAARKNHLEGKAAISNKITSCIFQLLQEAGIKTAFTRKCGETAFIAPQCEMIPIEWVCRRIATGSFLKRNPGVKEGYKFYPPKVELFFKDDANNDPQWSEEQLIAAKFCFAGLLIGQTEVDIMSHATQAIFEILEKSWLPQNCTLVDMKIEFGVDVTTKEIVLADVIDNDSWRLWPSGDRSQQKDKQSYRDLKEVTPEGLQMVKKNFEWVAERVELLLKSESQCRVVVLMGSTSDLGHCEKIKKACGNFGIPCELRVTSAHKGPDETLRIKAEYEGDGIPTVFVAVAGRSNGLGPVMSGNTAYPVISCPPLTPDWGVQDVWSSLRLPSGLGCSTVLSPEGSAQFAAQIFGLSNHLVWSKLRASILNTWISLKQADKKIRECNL

[6] = molecular target: Mitogen-activated protein kinase kinase kinase kinase 1 (Homo sapiens, UniProt Q92918)
Chain of Mitogen-activated protein kinase kinase kinase kinase 1 (Q92918 whole entry): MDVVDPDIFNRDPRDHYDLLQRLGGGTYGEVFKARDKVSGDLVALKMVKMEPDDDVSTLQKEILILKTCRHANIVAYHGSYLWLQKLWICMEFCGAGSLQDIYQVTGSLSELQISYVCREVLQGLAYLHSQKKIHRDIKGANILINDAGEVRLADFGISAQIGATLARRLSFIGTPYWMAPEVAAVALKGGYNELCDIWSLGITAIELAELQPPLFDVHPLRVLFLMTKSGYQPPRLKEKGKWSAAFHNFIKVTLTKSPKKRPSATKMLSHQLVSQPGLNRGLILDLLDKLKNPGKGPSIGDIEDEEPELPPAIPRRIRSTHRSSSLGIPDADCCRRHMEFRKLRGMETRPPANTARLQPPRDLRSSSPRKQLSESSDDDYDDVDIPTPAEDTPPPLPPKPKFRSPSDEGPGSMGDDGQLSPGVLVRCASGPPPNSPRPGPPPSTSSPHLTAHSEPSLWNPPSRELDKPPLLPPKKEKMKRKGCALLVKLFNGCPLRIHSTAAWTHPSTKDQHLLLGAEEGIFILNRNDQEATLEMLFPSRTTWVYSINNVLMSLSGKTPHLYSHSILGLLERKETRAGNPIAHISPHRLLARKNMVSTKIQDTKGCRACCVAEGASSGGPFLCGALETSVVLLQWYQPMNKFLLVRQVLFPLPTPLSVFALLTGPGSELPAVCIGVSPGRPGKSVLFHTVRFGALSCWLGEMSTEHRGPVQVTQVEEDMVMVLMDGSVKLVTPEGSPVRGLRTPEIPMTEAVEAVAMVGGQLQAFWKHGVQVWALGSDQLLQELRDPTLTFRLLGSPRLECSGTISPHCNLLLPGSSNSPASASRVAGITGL

[7] = molecular target: T4, Interleukin-1 receptor-associated kinase 3 (Homo sapiens, UniProt Q9Y616)
T4 sequence (Q9Y616 whole entry): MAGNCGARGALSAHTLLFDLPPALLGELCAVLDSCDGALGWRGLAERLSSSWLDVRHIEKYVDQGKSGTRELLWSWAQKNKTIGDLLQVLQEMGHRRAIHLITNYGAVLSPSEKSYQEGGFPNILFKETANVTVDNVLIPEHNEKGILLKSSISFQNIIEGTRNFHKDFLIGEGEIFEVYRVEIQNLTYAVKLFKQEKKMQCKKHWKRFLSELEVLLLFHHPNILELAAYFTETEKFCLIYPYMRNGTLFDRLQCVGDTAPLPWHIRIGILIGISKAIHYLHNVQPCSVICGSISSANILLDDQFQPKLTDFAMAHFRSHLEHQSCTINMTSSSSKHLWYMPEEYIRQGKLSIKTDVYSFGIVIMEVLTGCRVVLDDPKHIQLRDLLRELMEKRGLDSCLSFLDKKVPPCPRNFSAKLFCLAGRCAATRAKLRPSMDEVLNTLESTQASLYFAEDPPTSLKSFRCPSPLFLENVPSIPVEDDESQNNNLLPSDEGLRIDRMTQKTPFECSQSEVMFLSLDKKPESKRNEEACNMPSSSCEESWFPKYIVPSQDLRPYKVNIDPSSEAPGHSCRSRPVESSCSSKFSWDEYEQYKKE

[8] = molecular target: Glycogen synthase kinase-3 beta (Homo sapiens, UniProt P49841)
Chain of Glycogen synthase kinase-3 beta (P49841 whole entry): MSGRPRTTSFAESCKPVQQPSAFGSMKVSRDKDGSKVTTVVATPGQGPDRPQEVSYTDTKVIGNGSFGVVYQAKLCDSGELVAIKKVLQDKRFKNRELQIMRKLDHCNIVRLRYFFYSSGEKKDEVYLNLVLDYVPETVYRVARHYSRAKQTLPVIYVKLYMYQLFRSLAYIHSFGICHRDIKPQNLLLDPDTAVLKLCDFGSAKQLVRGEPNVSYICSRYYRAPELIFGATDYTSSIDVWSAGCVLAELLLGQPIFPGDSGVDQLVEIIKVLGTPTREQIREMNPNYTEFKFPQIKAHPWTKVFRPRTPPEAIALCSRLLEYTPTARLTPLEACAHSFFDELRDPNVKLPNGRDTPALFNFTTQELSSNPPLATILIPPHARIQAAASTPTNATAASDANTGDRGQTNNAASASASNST

Chain of Eukaryotic translation initiation factor 2-alpha kinase 1 (Q9BQI3 whole entry): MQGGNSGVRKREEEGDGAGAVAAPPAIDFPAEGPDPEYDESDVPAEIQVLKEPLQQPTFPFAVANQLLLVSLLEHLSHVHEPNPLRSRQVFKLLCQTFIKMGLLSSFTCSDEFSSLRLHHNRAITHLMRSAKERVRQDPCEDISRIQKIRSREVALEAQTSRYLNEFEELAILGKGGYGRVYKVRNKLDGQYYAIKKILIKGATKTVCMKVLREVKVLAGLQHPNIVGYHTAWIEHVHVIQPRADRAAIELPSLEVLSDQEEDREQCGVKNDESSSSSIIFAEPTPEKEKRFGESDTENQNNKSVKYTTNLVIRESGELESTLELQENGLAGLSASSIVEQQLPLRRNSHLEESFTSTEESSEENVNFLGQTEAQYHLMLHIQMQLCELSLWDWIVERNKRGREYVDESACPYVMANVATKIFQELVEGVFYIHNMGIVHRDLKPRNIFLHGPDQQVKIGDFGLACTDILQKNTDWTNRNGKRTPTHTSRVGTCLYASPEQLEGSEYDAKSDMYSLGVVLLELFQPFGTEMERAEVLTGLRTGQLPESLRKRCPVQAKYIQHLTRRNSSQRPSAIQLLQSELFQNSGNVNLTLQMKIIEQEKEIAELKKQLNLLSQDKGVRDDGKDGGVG

| SMILES | Kd [1] | Kd [2] | Kd [3] | Kd [4] | Kd [5] | Kd [6] | Kd [7] | Kd [8] |
| --- | --- | --- | --- | --- | --- | --- | --- | --- |
| CC(=O)c1cnc2ccc(-c3cc(Cl)c(O)c(Cl)c3)nc2c1N[C@H]1CC[C@H](CN(C)C)CC1 | > 30 µM (inactive) | 0.021 µM (active) | > 30 µM (inactive) | > 30 µM (inactive) | > 30 µM (inactive) | > 30 µM (inactive) | 0.012 µM (active) | – |
| Cc1nc2cc(-c3nn(C(C)C)c4ncnc(N)c34)ccc2o1 | > 30 µM (inactive) | > 30 µM (inactive) | – | > 30 µM (inactive) | > 30 µM (inactive) | > 30 µM (inactive) | > 30 µM (inactive) | – |
| COc1cc(Nc2ncc3c(n2)-c2ccc(Cl)cc2C(c2c(F)cccc2OC)=NC3)ccc1C(=O)O [ALISERTIB] | > 30 µM (inactive) | > 30 µM (inactive) | > 30 µM (inactive) | > 30 µM (inactive) | > 30 µM (inactive) | > 30 µM (inactive) | > 30 µM (inactive) | – |
| CNC(=O)c1ccccc1Sc1ccc2c(/C=C/c3ccccn3)n[nH]c2c1 [AXITINIB] | – | – | > 30 µM (inactive) | > 30 µM (inactive) | > 30 µM (inactive) | – | – | – |
| COc1cc2ncnc(Oc3cccc(NC(=O)Nc4cc(C(C)(C)C(F)(F)F)on4)c3)c2cc1OC [CEP-32496] | > 30 µM (inactive) | > 30 µM (inactive) | – | > 30 µM (inactive) | > 30 µM (inactive) | > 30 µM (inactive) | > 30 µM (inactive) | > 30 µM (inactive) |
| CC(C)(C)c1nc(-c2cccc(NS(=O)(=O)c3c(F)cccc3F)c2F)c(-c2ccnc(N)n2)s1 [DABRAFENIB] | – | > 30 µM (inactive) | > 30 µM (inactive) | > 30 µM (inactive) | > 30 µM (inactive) | > 30 µM (inactive) | > 30 µM (inactive) | – |
| Cn1cc(C2=C(c3cn(C4CCN(Cc5ccccn5)CC4)c4ccccc34)C(=O)NC2=O)c2ccccc21 [ENZASTAURIN] | – | – | > 30 µM (inactive) | > 30 µM (inactive) | > 30 µM (inactive) | – | – | – |
| Cc1nc2cc(-n3ncc(C(=O)c4cc5ccccc5[nH]4)c3N)ccc2[nH]1 [FGFR INHIBITOR DEBIO 1347] | > 30 µM (inactive) | > 30 µM (inactive) | – | > 30 µM (inactive) | > 30 µM (inactive) | > 30 µM (inactive) | > 30 µM (inactive) | > 30 µM (inactive) |
| C[C@@H](Oc1cc(-n2cnc3ccc(CN4CCN(C)CC4)cc32)sc1C(N)=O)c1ccccc1C(F)(F)F [GSK-461364] | – | – | – | > 30 µM (inactive) | > 30 µM (inactive) | – | – | – |

Source: ChEMBL document CHEMBL3991601, “The target landscape of clinical kinase drugs” (Science, 2017)
